Results reported in patent US5047413A (priority 1987, dated 1991).
Values after ≈ are worked out from the molar mass of the structure shown. “Also recorded” adds a separate entry of the source. Where two headings read alike, the source gives them in different places.

Assays:
[1] = M. Blau, U. Retzke, Zbl. Gynakol. 100 (1984); cited from earlier work
urinary bladder = conditions: literature, background; cited from earlier work
[2] = system: guinea-pig urinary bladder muscle; assay: tissue or blood
guinea pig ileum = assay: tissue or blood
guinea pig taenia coli = assay: tissue or blood; conditions: Cavia porcellus

Compound: CCCOC(C(=O)OC1CCN(C)CC1)(c1ccccc1)c1ccccc1 [propiverine, 1-methyl-4-piperidyl α,α-diphenyl-α-(n-propoxy)acetate]
- effect on blood pressure (in words) [1]: lowering of the blood pressure
- side effects (in words) (urinary bladder): not amenable to general use because of certain side effects
- therapeutic utility for the tone of the urinary bladder (in words) (urinary bladder): has shown therapeutic utility; also recorded: insufficiently effective in some patients
- myotropic/spasmolytic activity compared with papaverine (in words) [2]: reaches the potency of papaverine
- EC50 ([2]; Cavia porcellus, read-out: ED50 (myotropic/spasmolytic activity)): 53 µg/mL (≈ 144 µM)
- predominating effect, neurotropic/spasmolytic versus myotropic/spasmolytic (in words) (guinea pig ileum): the undesired myotropic/spasmolytic effect predominates
- EC50 (guinea pig ileum; Cavia porcellus, read-out: Neurotropic/spasmolytic activity, Ileum, Carbachol 50 ng/ml): 0.059 µg/mL (≈ 0.161 µM)
- EC50 (guinea pig taenia coli; read-out: ED50 (myotropic/spasmolytic activity)): 2 µg/mL (≈ 5.44 µM)
- EC50 (guinea pig taenia coli; read-out: Myotropic/spasmolytic activity, Taenia coli, Barium 200 μg/ml (EC 50)): 12 µg/mL (≈ 32.7 µM)
